Where two headings read alike, the source gives them in different places.
Key:
KRas G12C = KRas G12C (Homo sapiens, UniProt P01116, G12C); test: KRas G12C Probe Occupancy TR-FRET Assay; assay type: binding; details: for IC50 concentrations relative to Examples 1, 3, 5, and 7 (the P atropisomer designations): comparison of M with P atropisomers, Table 3
From the text: The purpose of this assay is to measure the ability of an inhibitor to compete with a probe for binding to and covalently modifying KRas G12C at codon 12. The signal is generated by the time-resolved transfer of fluorescence between europium on an antibody bound to KRas G12C Europium-labeled Anti-Histidine Tag Antibody LanthaScreen (the Eu Anti-His antibody) and fluorescent Tracer 647 (Alexa Fluor™) bound to KRas G12C through streptavidin and a biotinylated inhibitor (the “KRas Probe”, see Preparation 223).
Inhibitors are tested in dose response format from 10 mM stocks in 100% DMSO. The Labycyte Echo® 555 is used to dilute and transfer 100 nL per well containing a 10 point, 2.8-fold serial dilution to an assay plate. Two copies of the assay plate are prepared to measure the potency after 5 and 60 minutes incubation of the inhibitor with KRas G12C. His-tagged KRas G12C (20 nM) is added to the plates in assay buffer (20 mM Tris-HCl, pH 7.5, 0.01% TX-100, and 1 mM DTT). After 5 or 60 minutes incubation, 1 μM KRas Probe is added and allowed to covalently modify free KRas G12C for 1 hour. This is diluted 4-fold in buffer containing Eu Anti-His antibody and Streptavidin-Coated Tracer 647 (both from Life Technologies) to achieve KRas G12C (5 nM), Anti-His Antibody (2 nM), KRas Probe ([…]), and Streptavidin Coated Tracer 647 (500 nM). After 30 minutes, the fluorescent signal is read on an Envision™ Plate Reader (excitation at 340 nm, tracer emission (em) at […], and antibody emission at 615 nm). Maximum control wells lack inhibitor and minimum control wells lack both inhibitor and KRas G12C. The signal ratio (em at 665/em at 615) is converted to percent inhibition using the following equation: % Inhibition=100−[(Test Compound Signal−Median Minimum Signal)/(Median Maximum Signal−Median Minimum Signal)×100]. The IC50 is determined by fitting the percent inhibition at each inhibitor concentration to the four parameter nonlinear logistic equation using Genedata Screener®: y=(A+((B−A)/(1+((C/x)∧D)))) where, y=% inhibition, A=minimum asymptote, B=maximum asymptote, C=relative IC50 or the inhibitor concentration producing 50% inhibition within the fitted range of both asymptotes, and D=Hill Slope. Compounds within the scope of this disclosure are evaluated in this assay substantially as described above.

[1] = test system: constitutive RAS GTPase activity in human lung cancer cells H358; test: H358 Cellular Active RAS GTPase ELISA; assay type: cell-based; details: serum free media, incubated for 2 hours with compound
Description: Activated RAS (GTP-bound) in cell extracts specifically bind to the Raf-RBD. Bound RAS is detected with a primary antibody that recognizes human KRas. A secondary antibody conjugated with HRP recognizes the primary antibody and a development solution provides a chemiluminescent readout.
The next morning, 10 μL of serially-diluted (3-fold) test compounds (500 μM top concentration) and 10 μL of controls (Maximum signal wells: 5% DMSO and Minimum signal wells: 500 μM 1-[4-[6-chloro-8-fluoro-7-(3-hydroxy-1-naphthyl)quinazolin-4-yl]piperazin-1-yl]prop-2-en-1-one, WO2015054572 as an inhibitor) are added to the cell plate and incubated for 2 hours at 37° C./5% CO2. Complete Lysis/Binding Buffer is prepared containing Protease Inhibitor cocktail and GST-Raf-RBD and stored on ice. One hour before cell plate incubation is completed, 50 μL of GST-Raf-RBD is diluted in lysis/binding buffer, and buffer is added to the ELISA assay plate and which is incubated for 1 hour at 4° C. with gently rocking. After 2 hours, the cells are washed with 100 μL ice-cold PBS and lysed with 100 μL lysis/binding buffer. The cell plate is shaken for 10 minutes at ambient temperature. The cell plate is then centrifuged at 1500 rpm for 10 minutes at ambient temperature. During this time, 1×Wash Buffer is prepared at ambient temperature and then is used to wash (3×100 μL) the GST-Raf-RBD coated assay plate. After washing, 50 μL of cell lysate is added to the GST-Raf-RBD coated assay plate and incubated for 1 hour at ambient temperature with gentle shaking. During this incubation period, 1×Antibody Binding Buffer is prepared and brought to ambient temperature. The assay plate is washed 3×100 μL with 1×Wash Buffer and then 50 μL of Primary Antibody (diluted 1:500 in 1×Antibody Binding buffer) is added. The plate is incubated for 1 hour at ambient temperature. The assay plate is washed 3×100 μL with 1×Wash Buffer and then 50 μL of Secondary Antibody (diluted 1:5000 in 1×Antibody Binding buffer) is added and incubated for 1 hour at ambient temperature. The assay plate is washed 4×100 μL with 1×Wash buffer and then 50 μL of chemiluminescent working solution is added at ambient temperature. The assay plate is then read on an EnVision™ Plate Reader (Perkin Elmer) using a luminescence program.
The signal is converted to percent inhibition using the following equation: % Inhibition=100−[(Test Compound Signal−Median Minimum Signal)/(Median Maximum Signal−Median Minimum Signal)×100]. The Maximum signal is a control well without inhibitor.
(§1) Compounds within the scope of this disclosure are evaluated in this assay substantially as described above.

[2] = test system: phosphorylation of p-ERK1/2 in human lung cancer cells H358; test: H358 Cellular Phospho-ERK AlphaLISA; assay type: cell-based; details: incubated for 2 hours with compound, p-ERK 1/2 (Thr202/Tyr204)
Description: Briefly, the AlphaLISA® SureFire® Ultra™ p-ERK 1/2 (Thr202/Tyr204) assay is a sandwich immunoassay for quantitative detection of phospho-ERK 1/2 (phosphorylated on Thr202/Tyr204 in ERK1, or Thr185/Tyr187 in ERK2) in cellular lysates using Alpha Technology (Perkin Elmer Cat #ALSU-PERK-A50K).
The next morning, 10 μL of serially-diluted (3-fold) test compounds (50 μM top concentration) and 10 μL of controls (Maximum signal wells: 5% DMSO and Minimum signal wells: 2 μM of N-(3-{3-cyclopropyl-5-[(2-fluoro-4-iodophenyl)amino]-6,8-dimethyl-2,4,7-trioxo-3,4,6,7-tetrahydropyrido[4,3-D]pyrimidin-1(2H)-yl}phenyl)acetamide (trametinib, as a positive control) are added to the cell plate and incubated for 2 hours in humid trays at 37° C./5% CO2. Lysis Buffer is prepared at ambient temperature containing a protease and phosphatase inhibitor cocktail. Culture medium is removed by inverting and shaking the cell plate in the sink and then blotting onto a paper towel. Lysis buffer is added to the cell plate (50 μL per well) and the plate is incubated at ambient temperature for 10 minutes on a shaker. For p-ERK detection, acceptor beads are diluted into a suspension mixture with buffer. Using a STARlet liquid handler, 5 μL of acceptor beads and 2 μL of cell lysate are transferred as a single-step in-tip dilution to a 384 well assay plate. The assay plate is sealed with foil and is incubated at ambient temperature for 2 hours. Donor beads are diluted into a suspension mixture with buffer. Using the STARlet, 5 μL of donor beads are added to the assay plate that is then sealed, wrapped with foil. The plate is incubated at ambient temperature for 2 hours in the dark. The assay plate is then read on an EnVision™ Plate Reader (Perkin Elmer) using a luminescence program.
The signal is converted to percent inhibition using the following equation: % Inhibition=100−[(Test Compound Signal−Median Minimum Signal)/(Median Maximum Signal−Median Min Signal)×100]. The Maximum signal is a control well without inhibitor.
as §1

[3] = 5 minutes incubation of the inhibitor with His-tagged KRas G12C before KRas Probe, read-out: IC50 (nM) @ 5 min
[4] = 60 minutes incubation of the inhibitor with His-tagged KRas G12C before KRas Probe, read-out: IC50 (nM) @ 60 min

Chain of KRas G12C (P01116 1-188 isoform P01116-2 G12C): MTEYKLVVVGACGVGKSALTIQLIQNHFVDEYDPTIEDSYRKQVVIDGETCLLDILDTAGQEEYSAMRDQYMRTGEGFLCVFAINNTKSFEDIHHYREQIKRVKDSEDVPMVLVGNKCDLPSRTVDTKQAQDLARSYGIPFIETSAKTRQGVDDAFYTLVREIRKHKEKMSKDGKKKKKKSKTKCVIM

SMILES | IC50 (KRas G12C; [3]) [nM] | IC50 (KRas G12C; [4]) [nM] | IC50 ([1]; read-out: IC50) [nM] | IC50 [2] [nM] | IC50 concentrations relative to Examples 1, 3, 5, and 7 (the P atropisomer designations) (KRas G12C) | IC50 [1] [nM]
C=CC(=O)N1CCN2C(=O)c3cc(Cl)c(-c4ccc(F)c5sc(N)nc45)c(Cl)c3OCC[C@H]2C1 (single isomer, unassigned) [Example 1] | 18600 | 16000 | 14400 | 2460 |  | 
C=CC(=O)N1CCN2C(=O)c3cc(F)c(-c4cccc5sc(N)c(C#N)c45)c(Cl)c3OCC[C@H]2C1 (single isomer, unassigned) [Example 3] | 451 | 843 | 902 | 206 |  | 
C=CC(=O)N1CCN2C(=O)c3cc(F)c(-c4ccc(F)c5sc(N)c(C#N)c45)c(Cl)c3OCC[C@H]2C1 (single isomer, unassigned) [Example 5] | 3270 | 3250 |  | 330 |  | 1770
C=CC(=O)N1CCN2C(=O)c3cc(F)c(-c4ccc(F)c5sc(N)c(C#N)c45)c(Cl)c3OCC[C@H]2C1 (single isomer, unassigned) [Example 6] | < 15 | < 15 |  | 0.649 | superior IC50 concentrations | 3.31
C=CC(=O)N1CCN2C(=O)c3cc(F)c(-c4ccc(F)c5sc(N)c(C#N)c45)c(Cl)c3OC[C@H]2C1 (single isomer, unassigned) [Example 7] | 26900 | 17900 | 23800 | 2980 |  | 

Now from value to molecule, other results behind:

IC50 (KRas G12C; [3]) [nM] | IC50 (KRas G12C; [4]) [nM] | IC50 ([1]; read-out: IC50) [nM] | IC50 [2] [nM] | IC50 concentrations relative to Examples 1, 3, 5, and 7 (the P atropisomer designations) (KRas G12C) | SMILES | IC50 [1] [nM]
< 15 | < 15 | 6.71 |  | superior IC50 concentrations | C=CC(=O)N1CCN2C(=O)c3cc(Cl)c(-c4ccc(F)c5sc(N)nc45)c(Cl)c3OCC[C@H]2C1 (single isomer, unassigned) [Example 2] | 
< 15 | < 15 | 5.66 | 1.31 | superior IC50 concentrations | C=CC(=O)N1CCN2C(=O)c3cc(F)c(-c4cccc5sc(N)c(C#N)c45)c(Cl)c3OCC[C@H]2C1 (single isomer, unassigned) [Example 4] | 
< 15 | < 15 | 4.62 | 0.902 | superior IC50 concentrations | C=CC(=O)N1CCN2C(=O)c3cc(F)c(-c4ccc(F)c5sc(N)c(C#N)c45)c(Cl)c3OC[C@H]2C1 (single isomer, unassigned) [Example 8] | 

Source: US20250228848A1, “PROCESS FOR MAKING A KRAS G12C INHIBITOR” (ELI LILLY AND COMPANY, priority 2022, published 2025)
